According to patent US9034308B2, “Anti-sensitivity, anti-caries, anti-staining, anti-plaque ultra-mild oral hygiene agent” (RHODIA OPERATIONS, priority 2003, dated 2015):

Tests used:
[1] = Interaction with calcium phosphates (foaming); assay type: physicochemical; details: 1 Kg powder added to 1800 ml of 10% solution, pH ~7
Description: Disappearance of foaming was indicative of loss of surfactant from bulk solution. Increased hydrophobicity of the calcium phosphate was indicative of surfactant adsorption onto the solid particles.
A typical calcium based abrasive tooth paste formulation was prepared using dibasic calcium phosphate, dihydrate as the abrasive and conventional mixing techniques as shown below. […] This finding was in contrast to an earlier patent discussed above (U.S. Pat. No. 4,152,421) and was presumably so because of the strong interaction of the potassium dodecyl phosphate (1.2%) with the calcium phosphate abrasive.

[2] = 14C labeling, in the presence of saliva; cited from earlier work
[3] = 1% solution, in vitro; cited from earlier work

## CCCCCCCCCCCCOP(=O)([O-])[O-].[K+].[K+] [potassium dodecyl phosphate]
[1]
  foaming of the solution after addition of dibasic calcium phosphate, dihydrate: significantly reduced

## dodecyl-3 EO monoalkyl phosphate
[2]
  amount bonded to 40 mg HA: 0.20 to 0.35 mg

## dioctyl phosphate
[3]
  rate of calcium demineralization on treated teeth: lower rate of calcium demineralization

## hexadecyl-8 EO ethoxylate
[2]
  amount bonded to 40 mg HA: < 0.05 mg
